Results published in ChEMBL document CHEMBL1201862, “PubChem BioAssay data set” (2004).
The source made the active and inactive calls.

Key:
Beta-galactosidase = Beta-galactosidase (Escherichia coli, UniProt Q8VNN2); experiment: PubChem AID 485352; assay type: functional
[1] = target: T1, Heat shock factor protein 1 (Mus musculus, UniProt P38532); experiment: inhibition of MG132-induced HSE-luciferase signal, confirmation, cell-based, NIH3T3, luminescence, dose retest (AID 2382); assay type: functional;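 also: NIH3T3 fibroblasts with HSF1-driven luciferase reporter stressed by proteasome inhibitor MG132; luminescence from HSF1-driven luciferase expression after 8 hours of MG132 stress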
T1 sequence (P38532 whole entry): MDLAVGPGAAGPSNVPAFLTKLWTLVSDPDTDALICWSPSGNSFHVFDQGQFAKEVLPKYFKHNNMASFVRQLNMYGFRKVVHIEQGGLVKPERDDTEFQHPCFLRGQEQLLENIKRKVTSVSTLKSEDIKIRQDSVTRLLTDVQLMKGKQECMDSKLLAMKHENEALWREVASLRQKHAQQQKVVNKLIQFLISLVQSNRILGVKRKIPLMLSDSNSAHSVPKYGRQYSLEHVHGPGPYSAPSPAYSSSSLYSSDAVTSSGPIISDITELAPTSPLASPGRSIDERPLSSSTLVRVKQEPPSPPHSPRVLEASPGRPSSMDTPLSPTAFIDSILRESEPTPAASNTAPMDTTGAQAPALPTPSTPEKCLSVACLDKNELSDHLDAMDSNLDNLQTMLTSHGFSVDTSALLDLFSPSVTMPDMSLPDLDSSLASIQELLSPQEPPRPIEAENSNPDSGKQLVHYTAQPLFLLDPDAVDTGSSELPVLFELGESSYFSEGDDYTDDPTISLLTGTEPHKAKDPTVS

[2] = inhibitors of intracellular T. cruzi replication, confirmation, NIH3T3 host cells, beta-gal luminescence (AID 2044); assay type: functional, cell-based;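 also: intracellular parasites grown in NIH/3T3 mouse fibroblasts as host cells; luminescent beta-galactosidase reporter signal from transgenic T. cruzi replicating inside host cells; inhibitors lower the luminescence signal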
[3] = microbe, parasite or virus in culture; assay type: functional; conditions: Mycobacterium tuberculosis
[4] = Luminescence-based dose response cell-based high throughput screening assay for cytotoxic compounds using the IEC-6 intestinal epithelial cell line. [Related pubchem assays: 1858 (Summary AID.), 1825 (Counterscreen.), 1907 (Confirmation screen.)]; assay type: functional
[5] = target: T2, Type-1 angiotensin II receptor (Homo sapiens, UniProt P30556); experiment: AT1 receptor antagonists, dose response, selectivity assay for APJ receptor antagonist project, cell-based, uHTS hits (AID 463214); assay type: functional;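 also: antagonist potency against angiotensin II stimulated AT1 response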
T2 sequence (P30556 whole entry): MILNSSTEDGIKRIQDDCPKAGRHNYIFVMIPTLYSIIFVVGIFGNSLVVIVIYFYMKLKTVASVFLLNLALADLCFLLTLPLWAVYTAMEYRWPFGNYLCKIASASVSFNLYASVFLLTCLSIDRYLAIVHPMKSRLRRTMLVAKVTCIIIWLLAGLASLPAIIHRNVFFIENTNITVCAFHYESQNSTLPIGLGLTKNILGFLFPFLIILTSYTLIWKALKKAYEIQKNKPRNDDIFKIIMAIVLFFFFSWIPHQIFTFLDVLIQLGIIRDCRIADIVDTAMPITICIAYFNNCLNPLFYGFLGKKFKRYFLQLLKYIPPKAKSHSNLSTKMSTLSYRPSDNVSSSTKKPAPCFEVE

[6] = cytotoxicity toward NIH3T3 fibroblasts, dose response, counter-screen, cell-based, ATP luminescence, mouse fibroblasts (AID 2010); assay type: functional;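 also: cells exposed to compound for about 90 hours before reading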
INS1 = experiment: beta cell apoptosis inhibitors, cytokine rescue, dose response, luminescence, retest (AID 449756); assay type: functional, cell-based; conditions: Rattus norvegicus;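 also: cell death triggered by IL-1 beta plus TNF-alpha plus IFN-gamma mixture; protective hits raise ATP signal compared with cytokine alone wells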
[7] = Shn3 3'UTR reporter inhibitors, dose response, cell-based, Clone20 osteoblasts, firefly luciferase, cherry-picked (AID 624132); assay type: functional;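 also: firefly luciferase luminescence from reporter carrying the Shn3 3'UTR in osteoblasts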
[8] = HepG2 cell cytotoxicity, dose response, cytotoxicity control for Shn3 inhibitor project, CellTiter-Glo, cherry-picked (AID 624134); assay type: functional, cell-based
[9] = control 3'UTR Renilla luciferase suppression, dose response, counter-screen for Shn3 inhibitor project, cell-based, Clone20-Shn3RL, cherry-picked (AID 624133); assay type: functional
[10] = Fluorescence-based cell-based high throughput dose response assay for inhibitors of the interaction of nucleotide-binding oligomerization domain containing 2 (NOD2) and the receptor-interacting serine-threonine kinase 2 (RIPK2).; assay type: functional; conditions: Homo sapiens
[11] = A549 cell cytotoxicity, dose response, cytotoxicity control, plate reader, cherry-pick, antagonist series (AID 743412); assay type: functional, cell-based
[12] = HepG2 cell cytotoxicity, dose response, cytotoxicity control, plate reader, cherry-pick, antagonist series (AID 743416); assay type: functional, cell-based
[13] = LGR2 antagonists, dose response, cell-based, HEK293, CRE-luciferase reporter, cherry pick, set 2 (AID 743343); assay type: functional;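 also: transfected cells were stimulated with diluted bursicon conditioned medium after compound addition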
[14] = MC4R antagonists, dose response, counter-screen for LGR2 antagonist project, cell-based, plate reader, cherry pick (AID 743444); assay type: functional;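 also: transfected HEK 293 cells stimulated with alpha-MSH peptide; potency of inhibitors of the alpha-MSH evoked signal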
[15] = HEK293 cell cytotoxicity, dose response, cytotoxicity control, plate reader, cherry-picked samples (AID 743446); assay type: functional, cell-based
[16] = A Cell Based Secondary Assay To Explore Cytotoxicity of Compounds that Sensitize Mycobacterium Tuberculosis to Beta-Lactam Antibiotics.; assay type: functional
X-box-binding protein 1 = X-box-binding protein 1 (Homo sapiens, UniProt P17861); assay type: functional, Cricetulus griseus;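 also: confirmatory dose-response counter-screen serving a CHOP assay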
[17] = target: Voltage-gated N-type calcium channel alpha-1B subunit/Amyloid beta A4 precursor protein-binding family A member 1 (Homo sapiens, UniProt Q00975+Q02410); experiment: disruptors of Mint-PDZ/N-type channel peptide interaction – biochemical, HTRF, set 2, SAR follow-up (AID 434980); assay type: functional
[18] = Luminescence Cell-Based Dose Confirmation HTS to Identify Inhibitors of Polyadenylation.; assay type: functional
[19] = target: Peroxisome proliferator-activated receptor gamma/Nuclear receptor coactivator 2 (Homo sapiens, UniProt P37231); assay type: functional;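 also: agonist potency for raising coactivator recruitment to the receptor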
[20] = target: Peroxisome proliferator-activated receptor gamma/Nuclear receptor coactivator 1 (Homo sapiens, UniProt P37231); assay type: functional;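 also: agonist potency as compounds enhance coactivator SRC-1 recruitment to PPARgamma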
[21] = target: Peroxisome proliferator-activated receptor gamma/Nuclear receptor coactivator 3 (Homo sapiens, UniProt P37231); assay type: functional;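 also: agonist potency for raising coactivator recruitment to the receptor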
[22] = target: T3, Aryl hydrocarbon receptor (Homo sapiens, UniProt P35869); experiment: Luminescence-based cell-based high throughput dose response assay for activators of the Aryl Hydrocarbon Receptor (AHR). [Related pubchem assays: 2796 (Primary screen (AHR activators in singlicate)), 2845 (Confirmation screen (AHR activators in triplicate)), 434939 (Counterscreen (PXR activators in triplicate)), 2804 (Summary (AHR activators))]; assay type: ADME
T3 sequence (P35869 whole entry): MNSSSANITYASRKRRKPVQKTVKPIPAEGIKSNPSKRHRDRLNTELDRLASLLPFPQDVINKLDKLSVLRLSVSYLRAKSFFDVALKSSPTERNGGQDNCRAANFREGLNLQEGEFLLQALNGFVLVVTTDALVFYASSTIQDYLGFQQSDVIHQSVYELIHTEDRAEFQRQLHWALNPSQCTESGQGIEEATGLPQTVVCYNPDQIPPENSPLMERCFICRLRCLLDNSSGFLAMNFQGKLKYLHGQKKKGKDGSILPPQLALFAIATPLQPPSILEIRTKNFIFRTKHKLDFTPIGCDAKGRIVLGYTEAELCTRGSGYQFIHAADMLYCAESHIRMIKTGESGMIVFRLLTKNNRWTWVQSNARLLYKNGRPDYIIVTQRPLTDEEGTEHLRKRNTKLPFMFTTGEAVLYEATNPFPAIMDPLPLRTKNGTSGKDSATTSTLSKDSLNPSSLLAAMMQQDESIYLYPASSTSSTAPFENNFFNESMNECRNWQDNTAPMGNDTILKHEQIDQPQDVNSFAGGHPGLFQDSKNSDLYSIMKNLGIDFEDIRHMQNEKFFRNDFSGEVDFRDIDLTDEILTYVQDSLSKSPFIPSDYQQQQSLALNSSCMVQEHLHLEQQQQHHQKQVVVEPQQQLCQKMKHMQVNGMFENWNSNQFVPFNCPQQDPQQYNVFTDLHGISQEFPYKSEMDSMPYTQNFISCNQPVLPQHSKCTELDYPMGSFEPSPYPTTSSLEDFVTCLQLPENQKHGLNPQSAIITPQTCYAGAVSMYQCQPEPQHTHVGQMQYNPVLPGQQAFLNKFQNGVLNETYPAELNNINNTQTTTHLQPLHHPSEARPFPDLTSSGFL

[23] = inhibitors of firefly luciferase expression or activity, dose response, H4 neuroglioma cells, luminescence (AID 1990); assay type: functional, cell-based
BJ [24] = experiment: cytotoxicity toward BJ-TERT fibroblasts, dose response, cell-based, RAS-independent, luminescence (AID 1933); assay type: functional; conditions: Homo sapiens
[25] = Luminescence Cell-Based Dose Response HTS to Identify Inhibitors of 5'UTR Stem-Loop Driven Prion Protein mRNA Translation in H4 Neuroglioblastoma Cells. [Related pubchem assays: 1827 (Project Summary), 1813 (Primary HTS)]; assay type: functional
[26] = inhibitors of SNCA 5'UTR-driven reporter translation, confirmation, H4 neuroglioma cells, luminescence (AID 1988); assay type: functional, cell-based
BJ [27] = experiment: cells; assay type: functional, cell-based; conditions: Homo sapiens
BJ [28] = experiment: cytotoxicity toward BJ-TERT-LT-ST fibroblasts, dose response, cell-based, RAS-independent, luminescence (AID 1935); assay type: functional; conditions: Homo sapiens;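 also: BJ fibroblasts immortalized with TERT plus LT and ST oncogenes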
[29] = cytotoxicity toward DRD oncogenic fibroblasts, dose response, cell-based, non-viral oncogenic, luminescence (AID 1934); assay type: functional; conditions: Homo sapiens

Chain of Peroxisome proliferator-activated receptor gamma/Nuclear receptor coactivator 2 (P37231 whole entry): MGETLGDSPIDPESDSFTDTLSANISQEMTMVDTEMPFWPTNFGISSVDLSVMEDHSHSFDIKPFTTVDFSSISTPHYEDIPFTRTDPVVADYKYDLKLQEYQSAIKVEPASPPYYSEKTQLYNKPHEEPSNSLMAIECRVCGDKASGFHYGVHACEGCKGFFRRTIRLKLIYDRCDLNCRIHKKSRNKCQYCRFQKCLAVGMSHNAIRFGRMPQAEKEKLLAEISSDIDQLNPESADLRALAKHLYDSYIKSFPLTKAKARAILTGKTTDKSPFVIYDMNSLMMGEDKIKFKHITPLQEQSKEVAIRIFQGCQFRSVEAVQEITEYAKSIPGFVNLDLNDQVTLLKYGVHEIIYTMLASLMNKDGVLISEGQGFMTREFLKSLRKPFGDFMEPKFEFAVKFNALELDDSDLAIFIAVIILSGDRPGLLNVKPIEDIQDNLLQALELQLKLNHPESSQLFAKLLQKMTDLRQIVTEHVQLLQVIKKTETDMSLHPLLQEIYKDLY
Chain of Peroxisome proliferator-activated receptor gamma/Nuclear receptor coactivator 2 (Q15596 whole entry, further chain): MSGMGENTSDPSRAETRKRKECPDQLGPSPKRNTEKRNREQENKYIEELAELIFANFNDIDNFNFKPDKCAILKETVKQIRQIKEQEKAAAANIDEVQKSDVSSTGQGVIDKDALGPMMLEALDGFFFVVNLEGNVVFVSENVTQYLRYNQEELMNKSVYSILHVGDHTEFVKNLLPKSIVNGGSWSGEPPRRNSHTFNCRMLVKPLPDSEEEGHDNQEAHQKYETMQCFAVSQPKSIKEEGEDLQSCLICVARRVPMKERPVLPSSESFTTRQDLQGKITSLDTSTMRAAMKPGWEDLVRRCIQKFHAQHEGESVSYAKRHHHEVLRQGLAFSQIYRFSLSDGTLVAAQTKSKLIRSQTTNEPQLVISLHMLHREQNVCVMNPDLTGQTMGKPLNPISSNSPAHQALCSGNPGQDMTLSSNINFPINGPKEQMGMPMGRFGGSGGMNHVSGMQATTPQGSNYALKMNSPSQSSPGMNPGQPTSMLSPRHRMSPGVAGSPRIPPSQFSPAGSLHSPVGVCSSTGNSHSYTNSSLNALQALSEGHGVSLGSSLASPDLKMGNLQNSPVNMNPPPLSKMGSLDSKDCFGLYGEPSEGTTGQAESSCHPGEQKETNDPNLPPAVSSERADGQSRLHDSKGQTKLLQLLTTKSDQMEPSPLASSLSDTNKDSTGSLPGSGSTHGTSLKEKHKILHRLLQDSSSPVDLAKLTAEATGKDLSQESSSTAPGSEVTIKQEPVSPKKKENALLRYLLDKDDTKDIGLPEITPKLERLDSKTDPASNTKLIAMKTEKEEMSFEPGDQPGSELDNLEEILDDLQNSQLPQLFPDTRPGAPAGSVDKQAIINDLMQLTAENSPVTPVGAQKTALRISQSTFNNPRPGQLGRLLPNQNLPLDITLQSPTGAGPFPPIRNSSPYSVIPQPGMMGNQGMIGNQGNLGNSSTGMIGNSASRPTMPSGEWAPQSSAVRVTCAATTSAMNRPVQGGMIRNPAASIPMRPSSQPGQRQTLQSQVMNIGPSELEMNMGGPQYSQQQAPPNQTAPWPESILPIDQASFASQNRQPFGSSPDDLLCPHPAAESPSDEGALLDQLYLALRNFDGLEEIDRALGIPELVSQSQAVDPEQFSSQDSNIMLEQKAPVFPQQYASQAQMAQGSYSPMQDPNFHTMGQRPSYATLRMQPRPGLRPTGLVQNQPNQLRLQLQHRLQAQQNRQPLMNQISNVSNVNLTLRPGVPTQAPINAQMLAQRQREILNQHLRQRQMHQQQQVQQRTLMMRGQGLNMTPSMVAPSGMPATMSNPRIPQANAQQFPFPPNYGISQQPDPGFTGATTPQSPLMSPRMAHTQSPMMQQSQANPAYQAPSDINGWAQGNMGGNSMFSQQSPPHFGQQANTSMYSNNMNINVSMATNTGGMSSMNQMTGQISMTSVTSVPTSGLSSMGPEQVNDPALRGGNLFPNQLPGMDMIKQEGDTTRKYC
Chain of Peroxisome proliferator-activated receptor gamma/Nuclear receptor coactivator 3 (P37231 whole entry): as the sequence (P37231 whole entry) above
Chain of Peroxisome proliferator-activated receptor gamma/Nuclear receptor coactivator 3 (Q9Y6Q9 whole entry, further chain): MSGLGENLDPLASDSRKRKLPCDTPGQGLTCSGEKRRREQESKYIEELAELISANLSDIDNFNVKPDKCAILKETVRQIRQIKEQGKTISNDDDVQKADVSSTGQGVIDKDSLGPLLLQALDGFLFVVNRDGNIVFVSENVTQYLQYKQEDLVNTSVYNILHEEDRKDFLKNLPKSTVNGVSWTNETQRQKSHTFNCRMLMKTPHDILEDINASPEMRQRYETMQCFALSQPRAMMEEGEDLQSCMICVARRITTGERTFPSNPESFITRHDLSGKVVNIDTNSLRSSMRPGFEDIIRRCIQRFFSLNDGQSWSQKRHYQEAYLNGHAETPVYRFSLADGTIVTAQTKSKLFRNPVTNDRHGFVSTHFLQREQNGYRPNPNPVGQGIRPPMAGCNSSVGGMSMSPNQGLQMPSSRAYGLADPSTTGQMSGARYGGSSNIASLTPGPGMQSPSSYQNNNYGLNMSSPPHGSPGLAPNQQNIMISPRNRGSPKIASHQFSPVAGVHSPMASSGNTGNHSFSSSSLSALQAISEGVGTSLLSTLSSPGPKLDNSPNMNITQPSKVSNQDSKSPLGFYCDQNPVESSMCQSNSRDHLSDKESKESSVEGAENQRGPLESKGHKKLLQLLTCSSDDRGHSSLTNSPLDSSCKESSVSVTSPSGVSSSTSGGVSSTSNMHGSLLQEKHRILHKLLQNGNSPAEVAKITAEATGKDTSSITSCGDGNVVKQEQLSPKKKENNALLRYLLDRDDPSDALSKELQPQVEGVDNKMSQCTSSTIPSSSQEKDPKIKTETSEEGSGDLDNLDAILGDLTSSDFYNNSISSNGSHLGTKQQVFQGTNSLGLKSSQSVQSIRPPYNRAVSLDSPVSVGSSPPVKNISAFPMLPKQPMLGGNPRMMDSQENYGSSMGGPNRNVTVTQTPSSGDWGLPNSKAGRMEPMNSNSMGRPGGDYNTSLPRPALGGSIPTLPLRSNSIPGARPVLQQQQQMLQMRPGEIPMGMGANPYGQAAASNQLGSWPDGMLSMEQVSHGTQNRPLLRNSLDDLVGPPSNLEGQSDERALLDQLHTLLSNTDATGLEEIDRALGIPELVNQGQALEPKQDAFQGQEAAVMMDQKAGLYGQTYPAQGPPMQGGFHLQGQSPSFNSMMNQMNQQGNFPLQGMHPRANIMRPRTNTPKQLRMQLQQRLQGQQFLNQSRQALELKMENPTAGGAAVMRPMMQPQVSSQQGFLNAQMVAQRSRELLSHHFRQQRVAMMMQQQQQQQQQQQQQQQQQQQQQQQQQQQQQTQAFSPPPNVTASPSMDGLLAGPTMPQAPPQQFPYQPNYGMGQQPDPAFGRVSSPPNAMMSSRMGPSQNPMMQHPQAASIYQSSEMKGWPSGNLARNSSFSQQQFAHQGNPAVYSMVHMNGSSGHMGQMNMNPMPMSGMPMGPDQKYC
Chain of Beta-galactosidase (Q8VNN2 whole entry): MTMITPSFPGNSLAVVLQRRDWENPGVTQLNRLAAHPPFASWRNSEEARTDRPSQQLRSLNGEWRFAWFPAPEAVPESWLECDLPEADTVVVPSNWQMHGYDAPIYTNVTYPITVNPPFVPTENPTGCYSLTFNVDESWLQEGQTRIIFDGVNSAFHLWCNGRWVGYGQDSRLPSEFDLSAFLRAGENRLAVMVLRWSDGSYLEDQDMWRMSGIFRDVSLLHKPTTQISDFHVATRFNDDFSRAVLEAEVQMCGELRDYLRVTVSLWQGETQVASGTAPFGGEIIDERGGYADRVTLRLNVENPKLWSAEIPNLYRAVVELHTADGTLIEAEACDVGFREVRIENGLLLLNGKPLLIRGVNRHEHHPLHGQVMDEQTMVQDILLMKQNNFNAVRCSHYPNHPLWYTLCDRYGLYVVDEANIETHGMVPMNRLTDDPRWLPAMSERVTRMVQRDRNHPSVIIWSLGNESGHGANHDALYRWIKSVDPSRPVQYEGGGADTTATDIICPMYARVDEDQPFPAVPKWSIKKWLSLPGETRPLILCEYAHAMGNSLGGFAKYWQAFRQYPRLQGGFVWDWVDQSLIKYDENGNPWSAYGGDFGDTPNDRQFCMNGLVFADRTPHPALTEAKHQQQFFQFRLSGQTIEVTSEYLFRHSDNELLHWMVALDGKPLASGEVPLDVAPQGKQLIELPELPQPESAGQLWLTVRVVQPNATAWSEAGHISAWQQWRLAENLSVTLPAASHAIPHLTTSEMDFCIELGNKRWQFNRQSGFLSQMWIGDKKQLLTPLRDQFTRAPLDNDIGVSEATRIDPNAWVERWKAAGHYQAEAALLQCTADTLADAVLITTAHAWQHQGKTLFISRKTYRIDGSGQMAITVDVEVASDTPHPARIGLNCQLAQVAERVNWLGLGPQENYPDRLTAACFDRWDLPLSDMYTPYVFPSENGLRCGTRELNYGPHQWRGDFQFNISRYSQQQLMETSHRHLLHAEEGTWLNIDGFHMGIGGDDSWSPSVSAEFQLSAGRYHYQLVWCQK

Question: For `O=[N+]([O-])c1ccc(S(=O)(=O)c2ccccc2)nc1`, which EC50 (Beta-galactosidase) is on record?
Answer: > 40 µM (inactive)

Question: And the EC50 [1]?
Answer: 5.64 µM (active)

Question: And the EC50 [2]?
Answer: 1.89 µM (active)

Question: What about the CC50 [3] of the same molecule?
Answer: 8.09 µM (active)

Question: What about the IC50 [4] of the same molecule?
Answer: 3.48 µM (active)

Question: And the IC50 [5]?
Answer: 13.1 µM (active)

Question: And the EC50 [6]?
Answer: 2.5 µM (active)

Question: And the AC50 (INS1)?
Answer: 6.73 µM (active)

Question: And the AC50 [7]?
Answer: 1.74 µM (active)

Question: And the AC50 [8]?
Answer: 16.2 µM (active)

Question: And the AC50 [9]?
Answer: 3.96 µM (active)

Question: What about the IC50 [10] of the same molecule?
Answer: 2.65 µM (active)

Question: What about the AC50 [11] of the same molecule?
Answer: 8.59 µM (active)

Question: What about the AC50 [12] of the same molecule?
Answer: 6.81 µM (active)

Question: What about the AC50 [13] of the same molecule?
Answer: 3.97 µM (active)

Question: And the AC50 [14]?
Answer: 4.77 µM (active)

Question: And the AC50 [15]?
Answer: 8.17 µM (active)

Question: Which CC50 [16] does the source give for `Cc1ccc(CN2CCSc3ccc(C(=O)NC4CCN(Cc5ccccc5)CC4)cc32)cc1` here?
Answer: > 40 µM (active)

Question: And the EC50 [2]?
Answer: 1.37 µM (active)

Question: And the EC50 [6]?
Answer: > 60 µM (not active)

Question: With `CCOc1cc(S(=O)(=O)Nc2cc(C)cc(C)c2)ccc1Cl` as the molecule, how does the “Absolute IC50 (XBP1)” value (X-box-binding protein 1) read?
Answer: 10 µM

Question: With `O=C(c1cc(-c2ccco2)nc2ccccc12)N1CCC(CO)CC1` as the molecule, how does the IC50 [17] read?
Answer: > 56.8 µM (inactive)

Question: Which CC50 [16] does the source give for `CCN(CC)C(=O)C1CCCN(c2ccc([N+](=O)[O-])cc2/C=N/NC(=O)c2cccc([N+](=O)[O-])c2)C1` (stereo not given) here?
Answer: > 40 µM (active)

Question: With `O=C(N/N=C/c1ccsc1)c1cc2ccccc2o1` as the molecule, how does the EC50 [18] read?
Answer: > 120 µM (not active)

Question: Which EC50 [19] does the source give for `CCOc1ccc(/C=N/n2cc(-c3ccccc3)nc2S)cc1` here?
Answer: > 79.4 µM (not active)

Question: What about the EC50 [20] of the same molecule?
Answer: > 79.4 µM (not active)

Question: And the EC50 [21]?
Answer: > 79.4 µM (not active)

Question: And the EC50 [2]?
Answer: 2.35 µM (active)

Question: What about the EC50 [22] of the same molecule?
Answer: 4.76 µM (active)

Question: And the EC50 [6]?
Answer: > 60 µM (not active)

Question: With `Cc1ccc(-n2ncc(C(=O)Nc3cc(Cl)cc(Cl)c3)c2C2CCNCC2)cc1C` as the molecule, how does the EC50 [23] read?
Answer: > 120 µM (not active)

Question: What about the EC50 (BJ [24]) of the same molecule?
Answer: 3.72 µM (active)

Question: And the EC50 [25]?
Answer: 9.16 µM (active)

Question: What about the EC50 [26] of the same molecule?
Answer: 7.75 µM (active)

Question: And the EC50 (BJ [27])?
Answer: 8.6 µM (inconclusive)

Question: And the EC50 [2]?
Answer: 2.02 µM (active)

Question: And the IC50 [4]?
Answer: 5.23 µM (active)

Question: What about the EC50 [6] of the same molecule?
Answer: > 30 µM (not active)

Question: What about the EC50 (BJ [28]) of the same molecule?
Answer: 6.96 µM (inconclusive)

Question: What about the EC50 [29] of the same molecule?
Answer: 5.28 µM (active)
